What was measured:
KASUMI-1 cells = assay: Kasumi cell proliferation CTG; format: cell-based; conditions: treated for 120 hours, CellTiter-Glo
Protocol: Cell culture: KASUMI-1 cells (ACC20, Leibniz-Institut DSMZ Deutsche Sammlung von Mikroorganismen und Zellkulturen GmbH) were grown in RPMI 1640 (31870-025, Gibco) supplemented with 20% fetal bovine serum (F1524, Gibco), 1 mM sodium pyruvate (11360-039, Gibco) and 2 mM Glutamax (35050-038, Gibco) in a 5% CO2 humidified incubator at 37° C.
Cell treatment and cell growth assessment: KASUMI-1 cells were seeded in ultra-low attachment 384-well culture plate (MS-9384WZ, SBio) at a final concentration of 250 000 cells/ml (35 μL/well) and treated for 120 hours with compounds inhibiting the METTL3/14 activity (10 serial semi-log dilutions, 30 μM as top concentration). Upon treatment, Kasumi1 cells were incubated for 10 min at RT with the CellTiter-Glo reagent (G7571, Promega). Measurement of the luminescence signal was performed on a microplate reader (Ensight, PerkinElmer).

METTL3/14 = METTL3/14 (Homo sapiens (Human), UniProt Q86U44); assay: METTL3/14 methyltransferase assay (RapidFire mass spectrometry, RFMS); format: biochemical; conditions: 5 nM METTL3/14, 0.2 μM RNA substrate, 0.5 μM SAM, 60 minutes at room temperature
Chain of METTL3/14 (Q86U44 whole entry): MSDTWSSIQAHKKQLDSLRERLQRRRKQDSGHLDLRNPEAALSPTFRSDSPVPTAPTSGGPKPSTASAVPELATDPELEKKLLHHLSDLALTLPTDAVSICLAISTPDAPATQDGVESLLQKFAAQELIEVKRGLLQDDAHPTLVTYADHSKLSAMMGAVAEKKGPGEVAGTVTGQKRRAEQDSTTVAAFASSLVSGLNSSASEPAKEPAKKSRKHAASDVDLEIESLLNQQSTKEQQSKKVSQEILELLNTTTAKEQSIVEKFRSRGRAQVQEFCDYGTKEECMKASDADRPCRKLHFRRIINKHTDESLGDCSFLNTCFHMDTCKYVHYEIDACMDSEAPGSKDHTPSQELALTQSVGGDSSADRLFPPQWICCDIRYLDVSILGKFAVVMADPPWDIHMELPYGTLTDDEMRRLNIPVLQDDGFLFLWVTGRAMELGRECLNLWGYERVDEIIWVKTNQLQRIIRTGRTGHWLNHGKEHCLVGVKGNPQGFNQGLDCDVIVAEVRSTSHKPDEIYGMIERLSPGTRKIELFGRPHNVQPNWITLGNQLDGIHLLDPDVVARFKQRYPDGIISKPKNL
Chain of METTL3/14 (Q9HCE5 whole entry partner): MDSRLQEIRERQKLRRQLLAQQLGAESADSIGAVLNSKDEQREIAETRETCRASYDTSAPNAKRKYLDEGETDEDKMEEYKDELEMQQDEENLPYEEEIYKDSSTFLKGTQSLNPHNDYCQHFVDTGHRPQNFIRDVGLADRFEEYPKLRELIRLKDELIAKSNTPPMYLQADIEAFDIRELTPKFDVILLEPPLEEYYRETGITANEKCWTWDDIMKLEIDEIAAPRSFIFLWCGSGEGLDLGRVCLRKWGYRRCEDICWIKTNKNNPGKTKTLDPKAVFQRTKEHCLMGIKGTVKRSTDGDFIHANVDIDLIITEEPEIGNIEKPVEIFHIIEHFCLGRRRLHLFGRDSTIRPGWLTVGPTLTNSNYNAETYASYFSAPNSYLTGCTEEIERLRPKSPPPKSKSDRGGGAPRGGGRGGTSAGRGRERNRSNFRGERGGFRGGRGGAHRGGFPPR
Protocol: The enzymatic assay was established to determine IC50 values for inhibition of RNA methyltransferase activity. The enzyme used was full-length his-tagged METTL3 co-expressed with full length FLAG-tagged METTL14 in a baculovirus expression system. Enzymatic reactions were performed at room temperature in 384-well plates using a final reaction volume of 20 μL containing 20 mM TrisCl pH 7.6, 1 mM DTT, 0.01% Tween-20. 5 nM final concentration of METTL3/14 was pre-incubated with various compound concentrations for 10 minutes, followed by addition of 0.2 μM final concentration synthetic RNA substrate (5′P-[…]-3′) and 0.5 μM final concentration S-adenosyl-methionine (SAM). The reaction was incubated for a further 60 minutes at room temperature, and then quenched by the addition of 40 μL 7.5% TCA with two internal product standards (D4-SAH and 13C10-SAH). After termination, plates were sealed, centrifuged and stored at 4° C. until analysis.
RNA methyltransferase activity was measured label free using the RapidFire™ mass spectrometry (RF/MS) platform. Stopped and stable assay plates were analyzed on the Agilent RF300 integrated autosampler/solid-phase extraction (SPE) system coupled to an ABSciex 4000 mass spectrometer for the generation of the product S-adenosyl homocysteine (SAH) and normalized to the ratio of signal of the two internal product standards, respectively. Solvent A was water containing 0.1% (v/v) TCA. Solvent B was acetonitrile/0.1% ammonium acetate (8:2, v/v). More specifically, plates were centrifuged at 4350 rpm for 10 min, samples were aspirated under vacuum for 600 ms, then loaded onto a C18 solid-phase extraction cartridge and washed for 3 s with solvent A at a flow rate of 1.5 mL/min. Retained product and internal standards were eluted with solvent B at a flow rate of 1 mL/min for 3 s and finally the cartridge was re-equilibrated with solvent A for 500 ms. The mass transition for the product (SAH) was 384.9/135.9 Da. Transitions of the two internal product standards (IS1: D4-SAH and IS2: 13C10-SAH) were 389.1/135.8 Da and 395.0/134.2 Da, respectively. Ratios of SAH/IS1 and SAH/IS2 were used for normalization of matrix effects. IC50 values were calculated based on dilution series of individual compounds. Potency of a compound was measured at varied inhibitor concentrations and normalized to control wells without RNA substrate and without inhibition (DMSO only).

Compound | IC50 (METTL3/14) [µM] | IC50 (KASUMI-1 cells) [µM] | IC50 (KASUMI-1 cells; Homo sapiens, Kasumi 1, 120 h) [µM]
Nc1ncnc2c1c(Br)cn2[C@@H]1O[C@H](/C=C/CCCNCC2CC(F)(F)C2)[C@@H](O)[C@H]1O [Example 4, (2R,3R,4S,5R)-2-{4-amino-5-bromo-7H-pyrrolo[2,3-d]pyrimidin-7-yl}-5-[(1E)-5-{[(3,3-difluorocyclobutyl)methyl]amino}pent-1-en-1-yl]oxolane-3,4-diol] | – | – | 4.8
NCC/C=C/[C@H]1O[C@@H](n2cc(Br)c3c(N)ncnc32)[C@H](O)[C@@H]1O [Example 7, (2R,3R,4S,5R)-2-{4-amino-5-bromo-7H-pyrrolo[2,3-d]pyrimidin-7-yl}-5-[(1E)-4-aminobut-1-en-1-yl]oxolane-3,4-diol] | 0.568 | – | –
NCCC/C=C/[C@H]1O[C@@H](n2cc(Br)c3c(N)ncnc32)[C@H](O)[C@@H]1O [Example 8, (2R,3R,4S,5R)-2-{4-amino-5-bromo-7H-pyrrolo[2,3-d]pyrimidin-7-yl}-5-[(1E)-5-aminopent-1-en-1-yl]oxolane-3,4-diol] | 0.505 | – | –
Nc1ncnc2c1c(Br)cn2[C@@H]1O[C@H](/C=C/C2CNC2)[C@@H](O)[C@H]1O [Example 13, (2R,3R,4S,5R)-2-{4-amino-5-bromo-7H-pyrrolo[2,3-d]pyrimidin-7-yl}-5-[(1E)-2-(azetidin-3-yl)ethenyl]oxolane-3,4-diol] | 0.46 | – | –
Nc1ncnc2c1c(Br)cn2[C@@H]1O[C@H](/C=C/C2CCNCC2)[C@@H](O)[C@H]1O [Example 14, (2R,3R,4S,5R)-2-{4-amino-5-bromo-7H-pyrrolo[2,3-d]pyrimidin-7-yl}-5-[(1E)-2-(piperidin-4-yl)ethenyl]oxolane-3,4-diol] | 0.413 | – | –
Nc1ncnc2c1c(Br)cn2[C@@H]1O[C@H](/C=C/C2CCNC2)[C@@H](O)[C@H]1O (stereo partly drawn) [Example 16, (2R,3R,4S,5R)-2-{4-amino-5-bromo-7H-pyrrolo[2,3-d]pyrimidin-7-yl}-5-[(1E)-2-(pyrrolidin-3-yl)ethenyl]oxolane-3,4-diol] | 0.453 | – | –
Nc1ncnc2c1c(Br)cn2[C@@H]1O[C@H](/C=C/C2CC(N)C2)[C@@H](O)[C@H]1O (stereo partly drawn) [Example 17, (2R,3R,4S,5R)-2-{4-amino-5-bromo-7H-pyrrolo[2,3-d]pyrimidin-7-yl}-5-[(1E)-2-(3-aminocyclobutyl)ethenyl]oxolane-3,4-diol] | 1.31 | – | 12.4
Nc1ncnc2c1c(Br)cn2[C@@H]1O[C@H](/C=C/C2COC2)[C@@H](O)[C@H]1O [Example 18, (2R,3R,4S,5R)-2-{4-amino-5-bromo-7H-pyrrolo[2,3-d]pyrimidin-7-yl}-5-[(1E)-2-(oxetan-3-yl)ethenyl]oxolane-3,4-diol] | 2.93 | – | –
Nc1ncnc2c1c(Br)cn2[C@@H]1O[C@H](/C=C/CC2CNC2)[C@@H](O)[C@H]1O [Example 19, (2R,3R,4S,5R)-2-{4-amino-5-bromo-7H-pyrrolo[2,3-d]pyrimidin-7-yl}-5-[(1E)-3-(azetidin-3-yl)prop-1-en-1-yl]oxolane-3,4-diol] | 0.522 | – | –
Nc1ncnc2c1c(Br)cn2[C@@H]1O[C@H](/C=C/CCCN2CCOCC2)[C@@H](O)[C@H]1O [Example 25, (2R,3R,4S,5R)-2-{4-amino-5-bromo-7H-pyrrolo[2,3-d]pyrimidin-7-yl}-5-[(1E)-5-(morpholin-4-yl)pent-1-en-1-yl]oxolane-3,4-diol] | 1.09 | – | –
Nc1ncnc2c1c(Br)cn2[C@@H]1C[C@H](c2cccc(C(=O)NCC34CC(F)(C3)C4)c2)[C@@H](O)[C@H]1O [Example 40, 3-[(1R,2R,3S,4R)-4-{4-amino-5-bromo-7H-pyrrolo[2,3-d]pyrimidin-7-yl}-2,3-dihydroxycyclopentyl]-N-({3-fluorobicyclo[1.1.1]pentan-1-yl}methyl)benzamide] | 7.93 | – | –

Continued by falling IC50 (METTL3/14), values first:

IC50 (METTL3/14) [µM] | Compound | IC50 (KASUMI-1 cells) [µM] | IC50 (KASUMI-1 cells; Homo sapiens, Kasumi 1, 120 h) [µM]
0.351 | Nc1ncnc2c1c(Br)cn2[C@@H]1O[C@H](/C=C/C2CCCNC2)[C@@H](O)[C@H]1O (stereo partly drawn) [Example 15, (2R,3R,4S,5R)-2-{4-amino-5-bromo-7H-pyrrolo[2,3-d]pyrimidin-7-yl}-5-[(1E)-2-(piperidin-3-yl)ethenyl]oxolane-3,4-diol] | – | –
0.351 | Nc1ncnc2c1c(Br)cn2[C@@H]1O[C@H](/C=C/CCCN2CCCC(F)C2)[C@@H](O)[C@H]1O (stereo partly drawn) [Example 26, (2R,3R,4S,5R)-2-{4-amino-5-bromo-7H-pyrrolo[2,3-d]pyrimidin-7-yl}-5-[(1E)-5-(3-fluoropiperidin-1-yl)pent-1-en-1-yl]oxolane-3,4-diol] | – | –
0.317 | Nc1ncnc2c1c(Br)cn2[C@@H]1O[C@H](/C=C/CCNCc2ccccc2)[C@@H](O)[C@H]1O [Example 3, (2R,3R,4S,5R)-2-{4-amino-5-bromo-7H-pyrrolo[2,3-d]pyrimidin-7-yl}-5-[(1E)-4-(benzylamino)but-1-en-1-yl]oxolane-3,4-diol] | – | –
0.231 | Nc1ncnc2c1c(Br)cn2[C@@H]1O[C@H](/C=C/CCCN2CCC(F)CC2)[C@@H](O)[C@H]1O [Example 24, (2R,3R,4S,5R)-2-{4-amino-5-bromo-7H-pyrrolo[2,3-d]pyrimidin-7-yl}-5-[(1E)-5-(4-fluoropiperidin-1-yl)pent-1-en-1-yl]oxolane-3,4-diol] | – | –
0.0635 | Nc1ncnc2c1c(Br)cn2[C@@H]1O[C@H](/C=C/CCCN2CCC(F)(F)CC2)[C@@H](O)[C@H]1O [Example 23, (2R,3R,4S,5R)-2-{4-amino-5-bromo-7H-pyrrolo[2,3-d]pyrimidin-7-yl}-5-[(1E)-5-(4,4-difluoropiperidin-1-yl)pent-1-en-1-yl]oxolane-3,4-diol] | – | –
0.06 | Nc1ncnc2c1c(Br)cn2[C@@H]1O[C@H](/C=C/CCCNCC23CC(F)(C2)C3)[C@@H](O)[C@H]1F [Example 41, (2R,3R,4R,5R)-5-{4-amino-5-bromo-7H-pyrrolo[2,3-d]pyrimidin-7-yl}-4-fluoro-2-[(1E)-5-[({3-fluorobicyclo[1.1.1]pentan-1-yl}methyl)amino]pent-1-en-1-yl]oxolan-3-ol] | – | –
0.0448 | Nc1ncnc2c1c(Br)cn2[C@@H]1O[C@H](/C=C/CCCNCc2ccccc2)[C@@H](O)[C@H]1O [Example 1, (2R,3R,4S,5R)-2-(4-amino-5-bromo-7H-pyrrolo[2,3-d]pyrimidin-7-yl)-5-((E)-5-(benzylamino)pent-1-en-1-yl)tetrahydrofuran-3,4-diol] | 4.9 | –
0.0197 | Nc1ncnc2c1c(Br)cn2[C@@H]1O[C@H](/C=C/CCCNCC23CC(F)(C2)C3)[C@H](F)[C@H]1O [Example 28, (2R,3S,4R,5R)-2-{4-amino-5-bromo-7H-pyrrolo[2,3-d]pyrimidin-7-yl}-4-fluoro-5-[(1E)-5-[({3-fluorobicyclo[1.1.1]pentan-1-yl}methyl)amino]pent-1-en-1-yl]oxolan-3-ol] | – | –
0.0096 | Nc1ncnc2c1c(Br)cn2[C@@H]1O[C@H](/C=C/CCCNCC23CC(F)(C2)C3)C[C@H]1O [Example 27, (2R,3R,5S)-2-{4-amino-5-bromo-7H-pyrrolo[2,3-d]pyrimidin-7-yl}-5-[(1E)-5-[({3-fluorobicyclo[1.1.1]pentan-1-yl}methyl)amino]pent-1-en-1-yl]oxolan-3-ol] | – | –

Reference: US20240101589A1, “INHIBITORS OF METTL3” (Strom Therapeutics Limited, priority 2020, published 2024)
